Measured values: patent EP0502020B1, “NOVEL BENZO [b] PHENANTHROLINE-1,7 DERIVATIVES, AND THEIR PREPARATION AND THERAPEUTICAL APPLICATIONS” (PIERRE FABRE MEDICAMENT, priority 1989, dated 1991)

Test system: leucémie murine L 1210
Test: Cytotoxic activity on murine leukaemia L 1210 cells in suspension culture, cell count after 48 h
Assay type: cell-based
Conditions: Mus musculus, L1210; concentration reducing growth by 50 % versus controls; 48 heures d'incubation; Coulter Counter; 37°C, 5 % CO₂
Description: L'activité cytotoxique a été evaluée sur le modèle de la leucémie murine L 1210 cultivée en suspension en milieu iquide à 37°C sous une atmosphère de 5 % CO₂.
Les cellules en phase exponentielle de croissance sont incubées en présence de concentrations croissantes des produits. Après 48 heures d'incubation, les cellules sont comptées (Coulter Counter) et l'effet cytotoxique est évalué par la détermination par régression linéaire de la concentration du produit ayant réduit de 50 % la croissance par rapport aux témoins (IC₅₀).

Row | SMILES | IC50
1 | COCc1c(O)ccc2cc3ccc4ncccc4c3nc12 [Exemple 2, Hydroxy-10 méthoxyméthyl-11 benzo [b] phénanthroline-1,7] | 6500 nM
2 | CN1COCc2c1ccc1cc3ccc4ncccc4c3nc21 [Exemple 4, Dihydro-3,4 méthyl-4 1H-benzoxazino [3,1] [5,6-b] phénanthroline-1,7] | 1300 nM
3 | CNc1ccc2cc3ccc4ncccc4c3nc2c1COC [Exemple 6, Méthoxyméthyl-11 méthylamino-10 benzo [b] phénanthroline-1,7] | 1100 nM
4 | CNc1ccc2cc3ccc4ncccc4c3nc2c1CO [Exemple 7, Hydroxyméthyl-11 méthylamino-10 benzo [b] phénanthroline-1,7] | 170 nM
